# Columns and labels:
# Assay in all cases: normalised viability (% of control), CellTiter-Blue; higher = more viable cells (about 100 = DMSO control)
# Conditions in all cases: incubation time: 72 h
# [1] = test system: CAL-148
# Description: (§1)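 DSRT, CellTiter-Blue viability, 72 h incubation. Signal is normalised to DMSO and benzethonium chloride controls. Value is the normalised response at dose 7.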
# [2] = test system: HDQ-P1
# Description: as §1
# [3] = test system: DU-4475
# Description: as §1
# [4] = test system: CAL-51
# Description: as §1
# [5] = test system: CAL-85-1
# Description: as §1
# [6] = test system: MDA-MB-453
# Description: as §1
# [7] = test system: CAL-148; remark: listed apart in the source
# Description: (§2)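 DSRT, CellTiter-Blue viability, 72 h incubation. Signal is normalised to DMSO and benzethonium chloride controls. Value is the normalised response at dose 8.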
# [8] = test system: HDQ-P1; remark: listed apart in the source
# Description: as §2
# [9] = test system: DU-4475; remark: listed apart in the source
# Description: as §2
# [10] = test system: CAL-51; remark: listed apart in the source
# Description: as §2
# [11] = test system: CAL-85-1; remark: listed apart in the source
# Description: as §2
# [12] = test system: MDA-MB-453; remark: listed apart in the source
# Description: as §2
# [13] = test system: CAL-148; remark: listed apart in the source
# Description: (§3)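 DSRT, CellTiter-Blue viability, 72 h incubation. Signal is normalised to DMSO and benzethonium chloride controls. Value is the normalised response at dose 6.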
# [14] = test system: HDQ-P1; remark: listed apart in the source
# Description: as §3
# [15] = test system: DU-4475; remark: listed apart in the source
# Description: as §3
# [16] = test system: CAL-51; remark: listed apart in the source
# Description: as §3
# [17] = test system: CAL-85-1; remark: listed apart in the source
# Description: as §3
# [18] = test system: MDA-MB-453; remark: listed apart in the source
# Description: as §3
SMILES,normalised viability [7],normalised viability [8],normalised viability [9],normalised viability [10],normalised viability [11],normalised viability [12],also measured
CC(C)Cn1cnc2c(N)nc3ccccc3c21 [Imiquimod] (1000 nM),,,,,,,normalised viability [1]: 106%; normalised viability [2]: 86.1%; normalised viability [3]: 93.3%; normalised viability [4]: 99.8%; normalised viability [5]: 92.8%; normalised viability [6]: 104%
CN(C)/N=N/c1[nH]cnc1C(N)=O [Dacarbazine] (3000 nM),94.8%,95.5%,101%,97.2%,87.3%,95.7%,
CCN(CCCOc1ccc2c(Nc3cc(CC(=O)Nc4cccc(F)c4)[nH]n3)ncnc2c1)CCOP(=O)(O)O [Barasertib] (300 nM),22.6%,64.3%,63.8%,54%,73.1%,61%,
O=C1CCC(N2C(=O)c3ccccc3C2=O)C(=O)N1 (stereo not given) [Thalidomide] (3000 nM),113%,99.7%,110%,89.8%,91.7%,99.4%,
COc1cc2nccc(Oc3ccc(NC(=O)C4(C(=O)Nc5ccc(F)cc5)CC4)cc3)c2cc1OC [Cabozantinib] (300 nM),94.7%,72.6%,103%,104%,86.3%,112%,
Cc1ccc(-n2nc(C(C)(C)C)cc2NC(=O)Nc2ccc(OCCN3CCOCC3)c3ccccc23)cc1 [Doramapimod] (3000 nM),93.1%,75.8%,114%,102%,76%,96.8%,
C=C(c1ccc(C(=O)O)cc1)c1cc2c(cc1C)C(C)(C)CCC2(C)C [Bexarotene] (3000 nM),79.8%,77.3%,97%,92.8%,99.2%,84.2%,
C[C@]12CC[C@@H]3c4ccc(O)cc4C[C@@H](CCCCCCCCC[S+]([O-])CCCC(F)(F)C(F)(F)F)[C@H]3[C@@H]1CC[C@@H]2O (stereo not given in full) [Fulvestrant] (3000 nM),104%,90.4%,107%,99.7%,94.6%,92.8%,
N[C@@H](CSC(c1ccccc1)(c1ccccc1)c1ccccc1)C(=O)O [S-trityl-L-cysteine] (12000 nM),106%,84.6%,114%,98.6%,36.7%,99.1%,
CC(C)Cn1cnc2c(N)nc3ccccc3c21 [Imiquimod] (3000 nM),95.5%,89.1%,107%,107%,107%,95.7%,
Clc1ccc(Nc2nnc(Cc3ccncc3)c3ccccc23)cc1 [Vatalanib] (3000 nM),75%,91.8%,111%,104%,94%,75.2%,
CN(N=O)C(=O)N[C@@H](C=O)[C@@H](O)[C@H](O)[C@H](O)CO [Streptozocin] (3000 nM),98.7%,110%,95.3%,108%,97.8%,109%,
Oc1nc(-c2ccc(C(F)(F)F)cc2)nc2c1CSCC2 [XAV-939] (3000 nM),89.8%,76.8%,94.1%,90.3%,94.1%,95.4%,
Cn1c(Nc2ccc(C(F)(F)F)cc2)nc2cc(Oc3ccnc(-c4ncc(C(F)(F)F)[nH]4)c3)ccc21 [RAF265] (300 nM),85.5%,39.4%,71.3%,66.9%,71.5%,92.5%,
NCC(=O)CCC(=O)O [Aminolevulinic acid] (3000 nM),96.7%,103%,110%,109%,88.7%,122%,
CCN(CCCOc1ccc2c(Nc3cc(CC(=O)Nc4cccc(F)c4)[nH]n3)ncnc2c1)CCOP(=O)(O)O [Barasertib] (100 nM),,,,,,,normalised viability [1]: 23.7%; normalised viability [2]: 76.5%; normalised viability [3]: 77%; normalised viability [4]: 60.6%; normalised viability [5]: 77.2%; normalised viability [6]: 55.3%
COc1cc([C@@H]2c3cc4c(cc3[C@@H](O[C@@H]3O[C@@H]5CO[C@@H](C)O[C@H]5[C@H](O)[C@H]3O)[C@H]3COC(=O)[C@H]23)OCO4)cc(OC)c1O [Etoposide] (3000 nM),41.3%,78.7%,3.63%,26.4%,76.9%,89%,
CO[C@H]1/C=C\C=C(/C)C(=O)NC2=CC(=O)C(NCCN(C)C)=C(C[C@@H](C)C[C@H](OC)[C@H](O)[C@@H](C)/C=C(\C)[C@@H]1OC(N)=O)C2=O [Alvespimycin] (300 nM),14.8%,33.1%,1.07%,18.2%,24.4%,8.24%,
N.N.[Cl][Pt][Cl] [Cisplatin] (3000 nM),101%,104%,96.8%,106%,99.1%,100%,
C=C(c1ccc(C(=O)O)cc1)c1cc2c(cc1C)C(C)(C)CCC2(C)C [Bexarotene] (300 nM),,,,,,,normalised viability [13]: 92.8%; normalised viability [14]: 54.5%; normalised viability [15]: 116%; normalised viability [16]: 92.8%; normalised viability [17]: 89.8%; normalised viability [18]: 71.4%

# — the supplement of paper PMC4862054
